According to patent US20240269139A1, “COMPOUNDS FOR TARGETED PROTEIN DEGRADATION OF KINASES” (DANA-FARBER CANCER INSTITUTE, INC., priority 2020, published 2024):
Where two headings read alike, the source gives them in different places.

Tests used:
Assay type in all cases: cell-based
[1] = biological target: T1, protein kinases (human kinome) (Homo sapiens, UniProt Q9NYY8); details: direction down
T1 sequence (Q9NYY8 1-710): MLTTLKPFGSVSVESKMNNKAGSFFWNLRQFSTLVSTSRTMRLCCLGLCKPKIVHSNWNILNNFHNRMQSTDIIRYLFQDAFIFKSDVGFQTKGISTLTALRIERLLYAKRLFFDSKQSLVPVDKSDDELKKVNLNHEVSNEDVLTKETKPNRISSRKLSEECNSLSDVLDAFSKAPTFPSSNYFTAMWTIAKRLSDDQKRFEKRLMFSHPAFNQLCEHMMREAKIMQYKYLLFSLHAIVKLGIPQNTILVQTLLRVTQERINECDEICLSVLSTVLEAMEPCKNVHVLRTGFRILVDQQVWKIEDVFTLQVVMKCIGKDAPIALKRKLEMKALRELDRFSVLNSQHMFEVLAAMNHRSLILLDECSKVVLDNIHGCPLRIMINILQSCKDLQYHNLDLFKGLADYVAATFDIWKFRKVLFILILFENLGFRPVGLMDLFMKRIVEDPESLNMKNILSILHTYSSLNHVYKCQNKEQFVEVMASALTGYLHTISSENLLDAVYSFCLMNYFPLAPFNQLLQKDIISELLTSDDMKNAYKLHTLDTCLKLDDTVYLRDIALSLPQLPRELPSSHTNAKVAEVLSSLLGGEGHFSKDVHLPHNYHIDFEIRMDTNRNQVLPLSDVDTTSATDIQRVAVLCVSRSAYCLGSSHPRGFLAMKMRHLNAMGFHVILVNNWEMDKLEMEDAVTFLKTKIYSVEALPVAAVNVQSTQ

[2] = biological target: protein kinases (human kinome) (Homo sapiens, UniProt P53671); details: for logFC LIMK2: LIMK2 (P53671), down; for logFC of LIMK2: LIMK2 P53671
Sequence of protein kinases (human kinome) (Homo sapiens, UniProt P53671) (P53671 whole entry): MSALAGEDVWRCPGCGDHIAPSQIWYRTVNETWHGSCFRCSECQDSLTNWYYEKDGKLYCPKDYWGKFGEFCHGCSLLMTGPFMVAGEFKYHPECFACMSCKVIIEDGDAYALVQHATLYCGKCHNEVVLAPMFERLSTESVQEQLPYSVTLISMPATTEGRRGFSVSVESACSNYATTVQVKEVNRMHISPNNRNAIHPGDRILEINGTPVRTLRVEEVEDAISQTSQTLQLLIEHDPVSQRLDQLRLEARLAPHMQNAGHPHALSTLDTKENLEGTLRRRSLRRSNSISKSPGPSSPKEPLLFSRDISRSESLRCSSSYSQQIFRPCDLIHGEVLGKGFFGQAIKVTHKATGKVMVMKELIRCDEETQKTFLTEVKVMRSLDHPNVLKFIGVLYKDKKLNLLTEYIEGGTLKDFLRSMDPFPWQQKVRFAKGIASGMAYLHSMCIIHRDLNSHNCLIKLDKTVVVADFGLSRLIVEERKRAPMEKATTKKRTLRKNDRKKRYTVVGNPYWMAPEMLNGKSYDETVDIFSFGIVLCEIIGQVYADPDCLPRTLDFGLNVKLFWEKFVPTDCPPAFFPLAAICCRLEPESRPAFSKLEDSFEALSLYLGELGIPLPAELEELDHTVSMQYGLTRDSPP

[3] = biological target: protein kinases (human kinome) (Homo sapiens, UniProt P51451); details: for logFC BLK: BLK (P51451), direction down; for logFC of BLK: BLK P51451, experiment wp016; for logFC of BLK (P51451): down
Sequence of protein kinases (human kinome) (Homo sapiens, UniProt P51451) (P51451 whole entry): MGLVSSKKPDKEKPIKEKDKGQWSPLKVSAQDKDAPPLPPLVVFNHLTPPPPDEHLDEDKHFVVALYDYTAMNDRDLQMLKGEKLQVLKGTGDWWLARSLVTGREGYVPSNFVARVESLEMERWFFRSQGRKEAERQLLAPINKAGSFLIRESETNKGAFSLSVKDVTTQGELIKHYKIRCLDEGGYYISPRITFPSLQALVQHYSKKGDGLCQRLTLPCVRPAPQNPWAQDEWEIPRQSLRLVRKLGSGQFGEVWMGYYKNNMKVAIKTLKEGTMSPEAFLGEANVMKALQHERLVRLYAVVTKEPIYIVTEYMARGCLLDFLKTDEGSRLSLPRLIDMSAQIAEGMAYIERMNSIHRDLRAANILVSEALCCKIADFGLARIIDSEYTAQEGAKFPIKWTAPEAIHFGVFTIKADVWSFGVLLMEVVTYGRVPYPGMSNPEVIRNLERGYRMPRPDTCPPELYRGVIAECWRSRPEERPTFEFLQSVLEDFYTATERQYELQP

[4] = biological target: protein kinases (human kinome) (Homo sapiens, UniProt P11802)
Sequence of protein kinases (human kinome) (Homo sapiens, UniProt P11802) (P11802 whole entry): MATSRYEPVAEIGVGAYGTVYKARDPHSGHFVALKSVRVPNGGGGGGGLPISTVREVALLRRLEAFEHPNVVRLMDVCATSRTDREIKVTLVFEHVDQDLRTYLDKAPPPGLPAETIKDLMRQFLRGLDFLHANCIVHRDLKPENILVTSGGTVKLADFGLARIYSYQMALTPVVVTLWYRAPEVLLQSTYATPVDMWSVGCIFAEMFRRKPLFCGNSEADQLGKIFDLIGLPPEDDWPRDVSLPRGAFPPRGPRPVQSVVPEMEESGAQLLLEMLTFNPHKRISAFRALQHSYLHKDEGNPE

[5] = biological target: T2, protein kinases (human kinome) (Homo sapiens, UniProt O14976); details: for logFC GAK: GAK (O14976)
T2 sequence (O14976 1-1311): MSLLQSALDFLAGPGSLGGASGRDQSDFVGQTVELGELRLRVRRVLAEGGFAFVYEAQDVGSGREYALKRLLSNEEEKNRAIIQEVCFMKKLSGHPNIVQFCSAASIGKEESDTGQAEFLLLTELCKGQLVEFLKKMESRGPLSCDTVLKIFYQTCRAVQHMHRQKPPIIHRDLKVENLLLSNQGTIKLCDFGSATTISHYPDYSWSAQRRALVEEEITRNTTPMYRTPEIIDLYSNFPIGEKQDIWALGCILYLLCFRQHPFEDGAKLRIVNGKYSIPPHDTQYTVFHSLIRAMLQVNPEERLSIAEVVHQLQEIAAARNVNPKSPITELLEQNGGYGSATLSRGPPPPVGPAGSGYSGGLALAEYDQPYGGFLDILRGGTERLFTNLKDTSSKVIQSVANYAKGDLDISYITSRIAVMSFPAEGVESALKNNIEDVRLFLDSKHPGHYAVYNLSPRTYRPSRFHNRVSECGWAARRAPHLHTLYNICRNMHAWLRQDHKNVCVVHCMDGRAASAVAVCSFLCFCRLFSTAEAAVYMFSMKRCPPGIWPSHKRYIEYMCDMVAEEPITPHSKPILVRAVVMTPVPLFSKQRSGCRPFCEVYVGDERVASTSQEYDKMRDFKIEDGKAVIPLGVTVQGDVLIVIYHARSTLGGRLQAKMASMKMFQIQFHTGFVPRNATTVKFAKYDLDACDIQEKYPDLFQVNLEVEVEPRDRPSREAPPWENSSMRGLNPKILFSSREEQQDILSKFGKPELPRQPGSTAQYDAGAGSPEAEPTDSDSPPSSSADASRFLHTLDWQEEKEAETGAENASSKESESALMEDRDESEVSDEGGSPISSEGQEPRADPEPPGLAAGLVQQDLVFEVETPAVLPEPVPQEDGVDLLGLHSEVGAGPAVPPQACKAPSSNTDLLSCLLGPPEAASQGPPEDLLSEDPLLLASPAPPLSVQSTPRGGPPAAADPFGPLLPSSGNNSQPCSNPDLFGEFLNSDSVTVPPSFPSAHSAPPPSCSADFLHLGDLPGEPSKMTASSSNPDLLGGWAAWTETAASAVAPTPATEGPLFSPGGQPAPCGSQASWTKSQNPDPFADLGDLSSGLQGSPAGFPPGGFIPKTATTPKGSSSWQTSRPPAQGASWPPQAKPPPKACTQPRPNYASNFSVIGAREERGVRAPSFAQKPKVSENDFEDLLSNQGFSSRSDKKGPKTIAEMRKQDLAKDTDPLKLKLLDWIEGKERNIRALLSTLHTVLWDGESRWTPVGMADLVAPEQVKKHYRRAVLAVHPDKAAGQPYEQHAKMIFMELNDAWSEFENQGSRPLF

[6] = direction down, experiment wp016

CC(C)S(=O)(=O)c1ccccc1Nc1nc(Nc2ccc(N3CCN(CCOCCNC(=O)CNc4cccc5c4C(=O)N(C4CCC(=O)NC4=O)C5=O)CC3)cc2)ncc1Cl (stereo not drawn) [SK.3.91]
logFC FASTKD2 (Q9NYY8) ([1]; Experiment wp016, 1 uM): −0.4507
logFC LIMK2 ([2]; experiment wp016, 1 uM): −1.441
logFC LIMK2 ([2]; experiment wp016): −1.061
logFC LIMK2 ([2]; experiment wp103): −1.431
logFC LIMK2 ([2]; experiment wp107): −1.878
logFC LIMK2 ([2]; experiment wp114): −0.8414
logFC LIMK2 ([2]; experiment wp133, 2 hr): −0.7575
logFC LIMK2 ([2]; experiment wp133, 4 hr): −1.342
logFC LIMK2 ([2]; experiment wp172): −0.8984
logFC of LIMK2 ([2]; experiment wp016): −1.061
logFC of LIMK2 ([2]; experiment wp016, 1 uM): −1.441
logFC of LIMK2 ([2]; experiment wp103): −1.431
logFC of LIMK2 ([2]; experiment wp107): −1.878
logFC of LIMK2 ([2]; experiment wp114): −0.8414
logFC of LIMK2 ([2]; experiment wp133, 2 hr): −0.7575
logFC of LIMK2 ([2]; experiment wp133, 4 hr): −1.342
logFC of LIMK2 ([2]; experiment wp172): −0.8984
logFC BLK ([3]; experiment wp103): −1.625
logFC BLK ([3]; experiment wp107): −1.649
logFC BLK ([3]; experiment wp133, 1 hr): −0.3727
logFC BLK ([3]; experiment wp133, 2 hr): −0.8217
logFC BLK ([3]; experiment wp133, 4 hr): −1.49
logFC BLK ([3]; experiment wp160, 2 hr): −0.8744
logFC BLK ([3]; experiment wp160, 4 hr): −1.678
logFC of BLK [3]: −1.446
logFC of BLK ([3]; 1 uM): −1.977
logFC of BLK (P51451) ([3]; Experiment wp016, 1 uM): −1.977
logFC of BLK (P51451) ([3]; Experiment wp016): −1.446
logFC of BLK (P51451) ([3]; Experiment wp103): −1.625
logFC of BLK (P51451) ([3]; Experiment wp107): −1.649
logFC of BLK (P51451) ([3]; Experiment wp133, 1 hr): −0.3727
logFC of BLK (P51451) ([3]; Experiment wp133, 2 hr): −0.8217
logFC of BLK (P51451) ([3]; Experiment wp133, 4 hr): −1.49
logFC of BLK (P51451) ([3]; Experiment wp160, 2 hr): −0.8744
logFC of BLK (P51451) ([3]; Experiment wp160, 4 hr): −1.678
logFC CDK4 (P11802) ([4]; Experiment wp160, 2 hr): −0.9104
logFC CDK4 (P11802) ([4]; experiment wp016): −1.161
logFC CDK4 (P11802) ([4]; experiment wp016, 1 uM): −1.429
logFC CDK4 (P11802) ([4]; experiment wp103): −1.029
logFC CDK4 (P11802) ([4]; experiment wp105): −0.7995
logFC CDK4 (P11802) ([4]; experiment wp107): −1.272
logFC CDK4 (P11802) ([4]; experiment wp114): −0.5605
logFC CDK4 (P11802) ([4]; experiment wp133, 2 hr): −0.7484
logFC CDK4 (P11802) ([4]; experiment wp133, 4 hr): −1.292
logFC CDK4 (P11802) ([4]; experiment wp160, 1 hr): −0.4329
logFC CDK4 (P11802) ([4]; experiment wp160, 4 hr): −1.353
logFC of GAK (O14976) ([5]; Experiment wp016, 1 uM, down): −0.3526
logFC of GAK (O14976) ([5]; Experiment wp016, down): −0.5011
logFC of GAK (O14976) ([5]; Experiment wp105, down): −0.3832
logFC GAK [5, 6]: −0.5011
logFC GAK ([5]; direction down, experiment wp018, 1 uM): −0.3526
logFC GAK ([5]; direction down, experiment wp105): −0.3832
logFC GAK ([5]; direction down, experiment wp160, 4 hr): −0.3241
logFC GAK ([5]; experiment wp160, 4 hr, down): −0.3241

CC(C)S(=O)(=O)c1ccccc1Nc1nc(Nc2ccc(N3CCN(CCOCCOCCNC(=O)CNc4cccc5c4C(=O)N(C4CCC(=O)NC4=O)C5=O)CC3)cc2)ncc1Cl (stereo not drawn) [TL12.186]
logFC FASTKD2 (Q9NYY8) ([1]; Experiment wp137): −0.3625
logFC LIMK2 ([2]; experiment wp016): −0.7395
logFC LIMK2 ([2]; experiment wp131): −1.323
logFC LIMK2 ([2]; experiment wp137): −1.179
logFC of LIMK2 ([2]; experiment wp016): −0.7395
logFC of LIMK2 ([2]; experiment wp131): −1.323
logFC of LIMK2 ([2]; experiment wp137): −1.179
logFC BLK ([3]; experiment wp131): −2.497
logFC BLK ([3]; experiment wp137): −2.115
logFC of BLK [3]: −1.475
logFC of BLK (P51451) ([3]; Experiment wp016): −1.475
logFC of BLK (P51451) ([3]; Experiment wp131): −2.497
logFC of BLK (P51451) ([3]; Experiment wp137): −2.115
logFC CDK4 (P11802) ([4]; experiment wp016): −0.9166
logFC CDK4 (P11802) ([4]; experiment wp131): −1.186
logFC CDK4 (P11802) ([4]; experiment wp137): −1.173
logFC of GAK (O14976) ([5]; Experiment wp016, down): −0.3354
logFC GAK [5, 6]: −0.3354
